Assay results: patent publication US20260317319A1, “NOVEL ERGOLINES AND METHODS OF TREATING MOOD DISORDERS” (Gilgamesh Pharma Inc., priority 2023, published 2026)
Entries after “also recorded” stand apart in the source; their conditions may differ. Like-named read-outs stand apart in the source and are kept apart here.

Key:
Sprague Dawley rats = test: Forced swim test (FST) in rats; format: in vivo, rat; settings: for Time Immobile: rat FST, 10% DMSO in saline; for Time Immobile / effect on immobility in FST: 23.5 hours after a single dose; for effect on immobility in FST: rat
Experimental: Compound 1 induced antidepressant-like effects in the forced swim test (FST) in rats with a 23.5-h pre-treatment time (FIG. 2).
Animals. Male Sprague Dawley rats, aged 9-10 weeks, were used in this experiment. Animals were housed in groups of 2 under controlled temperature (22±3° C.) and relative humidity (30-70%) conditions, with 12-hour light/dark cycles, and with ad libitum food and water. This study was carried out in strict accordance with the requirements of the Committee for the Purpose of Control and Supervision of Experiments on Animals (CPCSEA), India. All efforts were made to minimize suffering.
Forced Swim Test (FST). […] Rats were handled for about 2 min daily for the 5 days prior to the beginning of the experimental procedure. On the first day of the experiment (i.e., Day 0), post randomization, training swim sessions (Swim 1) were conducted between 12:00 and 18:00 h with all animals by placing rats in individual glass cylinders (46 cm tall×20 cm in diameter) containing 23-25° C. water 30 cm deep for 15 minutes. At the conclusion of Swim 1, animals were dried with paper towels, placed in heated drying cages for 15 minutes, and then returned to their home cages. Animals were then administered the appropriate drug or vehicle treatment(s), as described above. For clarity, a compound administration time of 23.5 h before Swim 2 means 0.5 h after the start of Swim 1 and 0.25 h after the completion of Swim 1 (i.e., immediately after return to the home cage). On Day 1 (i.e., 24 h after start of Swim 1), animals performed the test swim (Swim 2) for a period of 5 min but otherwise under the same conditions as Swim 1. During all swim sessions, the water was changed between each animal.
Behavioral scoring was conducted by observers who were blind to the treatment groups. Animals were continuously observed during Swim 2 and the total time spent engaging in the following behaviors was recorded: immobile, swimming, and climbing. A rat was judged to be immobile when it remained floating in the water without struggling and was making only those movements necessary to keep its head above water. A rat was judged to be swimming when it made active swimming motions, more than necessary to merely maintain its head above water (e.g., moving around in the cylinder). A rat was judged to be climbing when it made active movements with its forepaws in and out of the water, usually directed against the walls.
Statistical Analysis. The data points shown represent the mean±standard error of the mean (SEM). Analysis was performed using GraphPad Prism 6. Comparisons between groups were performed using the one-way analysis of variance (ANOVA), followed by Dunnett's test for comparisons to vehicle.
Additional disclosed compounds were tested in the forced swim test (FST) in rats according to the procedure described in Example 58 (compounds 18 and 19 administered in 10% DMSO in saline).

C57BL/6 mice = test: Marble burying test (MBT) in mice; format: in vivo, mouse; settings: 30-minute period, compared to vehicle, FIG. 3
Experimental: Compound 1 produced an anxiolytic-like effect in the marble burying test (MBT) in C57BL/6 mice (FIG. 3).
Animals. Adult male C57BL/6 mice, aged 8-10 weeks (body weight 20-25 g) were used in these experiments. Animals were housed under controlled temperatures and 12-hour light/dark cycles (lights on between 07:00-19:00 h), with ad libitum food and water. This study was carried out in strict accordance with the requirements of the Committee for the Purpose of Control and Supervision of Experiments on Animals (CPCSEA), India. All efforts were made to minimize suffering.
Marble Burying Test (MBT). […] Mice were handled for about 2 min daily for the 3 days prior to the beginning of the experimental procedure. Twenty glass marbles (16 mm diameter) were placed with equal distances in a 5×4 pattern on a 5-cm layer of corn-cob bedding, with marbles at least 2 cm from the borders of the cage. The total number of marbles buried were counted in three 10-minute time bins (total 30 minutes). A marble was considered buried when it was >⅔ covered by bedding material.
Statistical Analysis. The data points shown are the mean±standard error of the mean (SEM). Analysis was performed using GraphPad Prism 6. Comparisons between groups were performed using the one-way analysis of variance (ANOVA), followed by Dunnett's test for comparisons to vehicle. […]

in vitro = in vitro ADME, human; settings: human, microsomes, role: substrate, metabolite 83 formed in HLM, read-out: Metabolite Formation (percent formation of metabolite 83)
Experimental: The ability of deuteration in compound 68 to attenuate formation of metabolite 83 compared to the same transformation of the non-deuterated compound 18 was also determined.
HLM Stability. Pooled HLM from adult male and female donors (Corning 452117) were used.

Row | Compound | immobility time in FST (Sprague Dawley rats; highest dose, 23.5 h pre-treatment, relative to vehicle control, FIG. 2) | number of marbles buried (C57BL/6 mice) | Time Immobile (Sprague Dawley rats; 0.1 mg/kg SC) [s] | Time Immobile (Sprague Dawley rats; 0.32 mg/kg SC) [s] | effect on immobility in FST (Sprague Dawley rats) | metabolised (in vitro; T = 0) [%] | metabolised (in vitro; T = 5) [%] | metabolised (in vitro; T = 15) [%] | metabolised (in vitro; T = 30) [%] | metabolised (in vitro; T = 45) [%] | metabolised (in vitro; T = 60) [%] | Time Immobile (Sprague Dawley rats; 1 mg/kg SC) [s] | Time Immobile (Sprague Dawley rats; 3.2 mg/kg SC) [s]
1 | CCCN1C[C@H](C(=O)N(CC)CC)C=C2c3cccc4[nH]cc(c34)C[C@H]21 [Compound 1, (6aR,9R)—N,N-diethyl-7-propyl-4,6,6a,7,8,9-hexahydroindolo[4,3-fg]quinoline-9-carboxamide] | reduced immobility time relative to vehicle control | reduced the number of marbles buried in a 30-minute period compared to vehicle | – | – | – | – | – | – | – | – | – | – | –
2 | CCN(CC)C(=O)[C@@H]1C=C2c3cccc4[nH]cc(c34)C[C@H]2N(Cc2cccc(OC)c2)C1 [Compound 18, (6aR,9R)—N,N-diethyl-7-(3-methoxybenzyl)-4,6,6a,7,8,9-hexahydroindolo[4,3-fg]quinoline-9-carboxamide] | – | – | 56.7 | 61.2 | maximal effects equivalent to hallucinogenic compounds and the positive control | 0.1 | 3.4 | 6.1 | 7.6 | 8.1 | 8.4 | – | –
3 | CCN(CC)C(=O)[C@@H]1C=C2c3cccc4[nH]cc(c34)C[C@H]2N(Cc2ccc(OC)cc2)C1 [Compound 19, (6aR,9R)—N,N-diethyl-7-(4-methoxybenzyl)-4,6,6a,7,8,9-hexahydroindolo[4,3-fg]quinoline-9-carboxamide] | – | – | 76.4 | 79.2 | maximal effects equivalent to hallucinogenic compounds and the positive control; also recorded: apparent therapeutic action of compound 19 decreased at higher doses | – | – | – | – | – | – | 96.0 | 166.5
